# According to PubChem BioAssay AID1259407 (Chemical Carcinogenesis Research Information System (CCRIS), 2018):
# Active and inactive are the calls of the source. No rule for the calls is given here.
# Test system: CCRIS mutagenicity, Ames/micronucleus/aberration tests
# Assay: CCRIS mutagenicity studies
# [1] = Test System: AMES SALMONELLA TYPHIMURIUM, Strain/Indicator: TA1535, Metabolic Activation: NONE, Method: PREINCUBATION
# [2] = Test System: AMES SALMONELLA TYPHIMURIUM, Strain/Indicator: TA1537, Metabolic Activation: NONE, Method: STANDARD PLATE
compound,measurement,setting,value
[Cl][Ni][Cl],mutagenic call,"End Point: IN VITRO MICRONUCLEUS, Test System: CHL/IU CELLS, Metabolic Activation: NONE",active; positive
same,mutagenic call,"Test System: AMES SALMONELLA TYPHIMURIUM, Strain/Indicator: TA102, Metabolic Activation: NONE, Method: PREINCUBATION",inactive; negative
same,mutagenic call,[1],inactive; negative
same,mutagenic call,"Test System: AMES SALMONELLA TYPHIMURIUM, Strain/Indicator: TA1538, Metabolic Activation: NONE, Method: PREINCUBATION",inactive; negative
same,mutagenic call,"Test System: AMES SALMONELLA TYPHIMURIUM, Strain/Indicator: TA1975, Metabolic Activation: NONE, Method: PREINCUBATION",inactive; negative
same,mutagenic call,"Test System: AMES SALMONELLA TYPHIMURIUM, Strain/Indicator: TA1978, Metabolic Activation: NONE, Method: PREINCUBATION",inactive; negative
same,mutagenic call,"Test System: CHINESE HAMSTER G10, Strain/Indicator: G10 (GPT)/6-THIOGUANINE, Metabolic Activation: NONE",active; positive
same,mutagenic call,"Test System: CHINESE HAMSTER G10, Strain/Indicator: G10/6-THIOGUANINE, Metabolic Activation: NONE",active; positive
same,mutagenic call,"Test System: CHINESE HAMSTER G12, Strain/Indicator: G12 (GPT)/6-THIOGUANINE, Metabolic Activation: NONE",active; positive
same,mutagenic call,"Test System: CHINESE HAMSTER G12, Strain/Indicator: G12/6-THIOGUANINE, Metabolic Activation: NONE",active; positive
same,mutagenic call,"Test System: CHINESE HAMSTER V-79, Strain/Indicator: SP5 V-79 (HPRT)/6-THIOGUANINE, Metabolic Activation: NONE, Method: STANDARD PLATE",inactive; negative
same,mutagenic call,"Test System: CHINESE HAMSTER V-79, Strain/Indicator: SPD8 V-79 (HPRT)/6-THIOGUANINE, Metabolic Activation: NONE, Method: STANDARD PLATE",active; positive
same,mutagenic call,"Test System: E. COLI, Strain/Indicator: WP2 UVRA, Metabolic Activation: NONE, Method: SPOT TEST",active; positive
same,mutagenic call,"Test System: E. COLI, Strain/Indicator: WP2 UVRA, Metabolic Activation: NONE, Method: STANDARD PLATE",active; positive
same,mutagenic call,"Test System: UDS HUMAN AMNION FL CELL LINE, Strain/Indicator: THY INCORP, Metabolic Activation: NONE, Method: LIQUID SCINTILLATION COUNTING",active; positive
COC1=C(OC)C(=O)C(C/C=C(\C)CC/C=C(\C)CC/C=C(\C)CC/C=C(\C)CC/C=C(\C)CC/C=C(\C)CC/C=C(\C)CC/C=C(\C)CC/C=C(\C)CCC=C(C)C)=C(C)C1=O,mutagenic call,"Test System: AMES SALMONELLA TYPHIMURIUM, Strain/Indicator: TA98, Metabolic Activation: NONE, Method: PREINCUBATION",inactive; negative
same,mutagenic call,"Test System: AMES SALMONELLA TYPHIMURIUM, Strain/Indicator: TA98, Metabolic Activation: RAT, LIVER, S-9, PHENOBARBITAL AND 5,6-BENZOFLAVONE, Method: PREINCUBATION",inactive; negative
same,mutagenic call,"Test System: AMES SALMONELLA TYPHIMURIUM, Strain/Indicator: TA100, Metabolic Activation: NONE, Method: PREINCUBATION",inactive; negative
same,mutagenic call,"Test System: AMES SALMONELLA TYPHIMURIUM, Strain/Indicator: TA100, Metabolic Activation: RAT, LIVER, S-9, PHENOBARBITAL AND 5,6-BENZOFLAVONE, Method: PREINCUBATION",inactive; negative
same,mutagenic call,[1],inactive; negative
same,mutagenic call,"Test System: AMES SALMONELLA TYPHIMURIUM, Strain/Indicator: TA1535, Metabolic Activation: RAT, LIVER, S-9, PHENOBARBITAL AND 5,6-BENZOFLAVONE, Method: PREINCUBATION",inactive; negative
same,mutagenic call,"Test System: AMES SALMONELLA TYPHIMURIUM, Strain/Indicator: TA1537, Metabolic Activation: NONE, Method: PREINCUBATION",inactive; negative
same,mutagenic call,"Test System: AMES SALMONELLA TYPHIMURIUM, Strain/Indicator: TA1537, Metabolic Activation: RAT, LIVER, S-9, PHENOBARBITAL AND 5,6-BENZOFLAVONE, Method: PREINCUBATION",inactive; negative
same,mutagenic call,"Test System: E. COLI, Strain/Indicator: WP2UVRA, Metabolic Activation: NONE, Method: PREINCUBATION",inactive; negative
same,mutagenic call,"Test System: E. COLI, Strain/Indicator: WP2UVRA, Metabolic Activation: RAT, LIVER, S-9, PHENOBARBITAL AND 5,6-BENZOFLAVONE, Method: PREINCUBATION",inactive; negative
O=S(=O)(Nc1ccc(Cl)c(Cl)c1)c1cccc2cccnc12,mutagenic call,"Test System: AMES SALMONELLA TYPHIMURIUM, Strain/Indicator: TA98, Metabolic Activation: NONE, Method: STANDARD PLATE",inactive; negative
same,mutagenic call,"Test System: AMES SALMONELLA TYPHIMURIUM, Strain/Indicator: TA98, Metabolic Activation: RAT, LIVER, S-9, AROCLOR 1254, Method: STANDARD PLATE",inactive; negative
same,mutagenic call,"Test System: AMES SALMONELLA TYPHIMURIUM, Strain/Indicator: TA100, Metabolic Activation: NONE, Method: STANDARD PLATE",inactive; negative
same,mutagenic call,"Test System: AMES SALMONELLA TYPHIMURIUM, Strain/Indicator: TA100, Metabolic Activation: RAT, LIVER, S-9, AROCLOR 1254, Method: STANDARD PLATE",inactive; negative
same,mutagenic call,"Test System: AMES SALMONELLA TYPHIMURIUM, Strain/Indicator: TA1535, Metabolic Activation: NONE, Method: STANDARD PLATE",inactive; negative
same,mutagenic call,"Test System: AMES SALMONELLA TYPHIMURIUM, Strain/Indicator: TA1535, Metabolic Activation: RAT, LIVER, S-9, AROCLOR 1254, Method: STANDARD PLATE",inactive; negative
same,mutagenic call,[2],inactive; negative
same,mutagenic call,"Test System: AMES SALMONELLA TYPHIMURIUM, Strain/Indicator: TA1537, Metabolic Activation: RAT, LIVER, S-9, AROCLOR 1254, Method: STANDARD PLATE",inactive; negative
CS(=O)(=O)Nc1ccc(Nc2c3ccccc3nc3cc(N=[N+]=[N-])ccc23)cc1,mutagenic call,[2],active; positive
